This note sets out measurements from patent EP0201988A2, “Dihydropyridazinone derivatives” (SMITH KLINE & FRENCH LABORATORIES LIMITED, priority 1985, dated 1986).

One test concerns the target PDE (Peak III). In words: Inhibition of phosphodiesterases, PDE (Peak III) enzyme assay. In kind it is biochemical. The following applies: PDE (Peak III) from cat heart, 1 µM cyclic AMP. The procedure:
Sepharose is a registered trademark of Pharmacia Fine Chemicals Inc. The high-speed supernatant from a cat heart homogenate (2 g tissue in 20 ml 20 mM PiPES - (Piperazine-N-N'-bis[2-ethanesulfonic acid]), 50 mM Na acetate, pH 6.5) was applied to a 15 ^x 1.5 cm column of DEAE-Sepharose equilibrated with the homogenisation buffer. The PDE activities were eluted with a gradient of 0.05-1 M Na acetate in 20 mM PIPES.
The enzyme was assayed by incubation at 37° for 4-30 min in 50 mM Tris, 5 mM MgCl2, pH 7.5 with [3-H] cyclic nucleotide (4 ^x 10^5 disintegrations min-') and [14-C] nucleotide 5' monophosphate (3 ^x 10^3 disintegrations min^-1). The assay was stopped by boiling, and the [3-H] […] The reaction mixture was diluted with 0.5 ml 100 mM HEPES (N-2-Hydroxyethylpiperazine-N'-2-ethanesulfonic acid), 100 mM NaCl, pH 8.5, and applied to the column. The column was extensively washed with the same buffer, and the 5' nucleotide eluted with 6 ml 025 M acetic acid.

For a further test, the system named is ventricular strips. In words: Cardiac stimulant activity in vitro (electrically stimulated ventricular strips). To be noted: Cavia porcellus; guinea pig right ventricle strips, stimulated at 1.0 Hz, Krebs Henseleit solution at 37°C, concentration in the bathing fluid; read-out: EC50 (50% increase in the force of contraction of the ventricular strips). In kind it is cell-based, Guinea pigs. As to the method:
The compounds of formula (I) and their pharmaceutically acceptable salts are tested for cardiac stimulant activity following a procedure based on that of S.C. Verma and J. H. McNeill (J.Pharm & Exp. Therapeutics, 200, 352-362 (1977)). Guinea pigs (500-700 g) of either sex are sacrificed and the hearts are quickly removed and transferred to a dissecting dish containing oxygenated bathing fluid. While in the bathing medium, the right ventricle is cut into two strips. The strips are each suspended in a 50 ml bath containing Krebs Henseleit solution at 37°C, and the bath is bubbled with 95% oxygen and 5% carbon dioxide. The ventricular strips are electrically stimulated at a frequency of 1.0 Hz, at double the threshold voltage. A resting tension of 1.0 g is applied to the strips and the tension is kept constant by readjustment during an equilibration period of 60 minutes. The bathing fluid is frequently changed during this period. When a steady base line is obtained, a compound under test is added to the bathing fluid and a cumulative concentration response curve is plotted.

Another test concerns anaesthetised cats. In words: Cardiac stimulant activity in vivo (anaesthetised cats). To be noted: anaesthetised cats pretreated with pempidine and propranolol, administered intravenously; for ED50: Felis catus, iv, read-out: ED50 (dose to increase left ventricular dp/dt max by 50%).

`Cc1[nH]c(=O)c(C#N)cc1-c1ccncc1` (single isomer, unassigned) [Milrinone]: it took 2.2 µM to reach half-maximal inhibition against PDE (Peak III) (IC50).
Turning to `CC1CC(=O)NN=C1c1ccc(NC2=NC(=O)CN2)cc1` (centres unmarked) [Example 1, 6-[4-(4-Oxo-2-imidazolin-2-ylamino)phenyl]-5-methyl-4,5-dihydro-3(2H)-pyridazinone], the EC50 with ventricular strips is 14 µM. For the same compound, in the test with anaesthetised cats, the ED50 was 0.4 µmol/kg and the duration of activity entry is listed as “long duration of activity”. The IC50 at PDE (Peak III) was determined as 1.84 µM.
For the compound `Nc1cc(-c2ccncc2)c[nH]c1=O` [Amrinone], in the test on anaesthetised cats, the ED50 came to 5.6 µmol/kg and the duration of activity result is listed as “short duration of activity”. Besides, at PDE (Peak III), the IC50 came to 51.8 µM.
